{"source": "paper PMC10725991", "about": "“Kaempferol is a novel antiviral agent against channel catfish virus infection through blocking viral attachment and penetration in vitro” (Frontiers in Veterinary Science, 2023)", "key": {"[1]": {"tested_on": "CCV in CCO cells", "assay": "Virus attachment assay", "format": "cell-based, Channel catfish virus (CCV, Ictalurid herpesvirus 1)", "conditions": "kaempferol 15 μg/mL, 24 h", "procedure": "The attachment assay was performed as previously described, with slight modifications ([35]). Briefly, monolayer CCO cells seeded in 24-well plates were pre-cooled at 4°C for 30 min, and then the pre-cooled cells were treated with kaempferol (15 μg/mL) or left untreated for 2 h at 4°C. Cells were then incubated with CCV at 4°C for 1 h to allow virus attachment but prevent viral internalization. Thereafter, the compound and unattached virus were washed with ice-cold PBS and a fresh DMEM medium was added. After incubated at 28°C for 24 h, the cells were collected for subsequent experiments, including RT-qPCR and viral titer.\nMeasurement of viral titer was described previously ([5]). […]\nFor RT-qPCR, the total RNA was isolated from CCV-infected cells using RnaExTM (Trizol)^a reagent (GENERAY, China), and reversed transcribed applying a HiScript III RT SuperMix with gDNA wiper (Vazyme, China) following the manufacturer’s instructions. Quantitative PCR was performed with a LightCycler 96 Real-Time PCR Detection System (Roche, USA) using ChamQ Universal SYBR qPCR Master Mix (Vazyme, China) with the following cycle conditions: 95°C for 30 s, followed by 40 cycles of 95°C for 10 s and 60°C for 30 s. […] Fold changes of the selected gene vs 18 s (internal reference) were calculated by the 2^−△△Ct method. […]"}, "[2]": {"tested_on": "CCV in CCO cells", "assay": "Time-of-drug-addition assay, RT-qPCR", "format": "cell-based, Channel catfish virus (CCV, Ictalurid herpesvirus 1)", "procedure": "The CCO cells seeded in 24-well plates were infected with CCV under five different treatment conditions: (i) Control: CCO cells cultured in the maintenance DMEM media were infected by CCV for 1 h. (ii) Pre-treatment: CCO cells were pre-treated with 15 μg/mL of kaempferol for 2 h before CCV infection. (iii) Virus treatment: CCV was pre-incubated with kaempferol at 37°C for 2 h before being added to CCO cells. (iv) Virus and kaempferol co-treatment: CCO cells were treated in media containing both kaempferol and CCV at 28°C for 1 h. (v) Post-treatment: CCO cells were incubated with CCV at 28°C for 1 h. After that, kaempferol (15 μg/mL) was supplemented at 1, 2, 4, 8, 12, and 24 h post-infection. In all treatment conditions, the unabsorbed CCV was washed off twice by PBS after 1 h of adsortion. The samples were collected to test the CCV gene expression by the RT-qPCR at 24 h and 36 h after the corresponding treatments.\nFor RT-qPCR, the total RNA was isolated from CCV-infected cells using RnaExTM (Trizol)^a reagent (GENERAY, China), and reversed transcribed applying a HiScript III RT SuperMix with gDNA wiper (Vazyme, China) following the manufacturer’s instructions. Quantitative PCR was performed with a LightCycler 96 Real-Time PCR Detection System (Roche, USA) using ChamQ Universal SYBR qPCR Master Mix (Vazyme, China) with the following cycle conditions: 95°C for 30 s, followed by 40 cycles of 95°C for 10 s and 60°C for 30 s. To assess the specificity of each amplicon, melt curve analysis was also performed at the end of each thermal profile. The primers used for PCR are listed in Supplementary Table S2. Each individual sample was run in triplicate wells. Fold changes of the selected gene vs 18 s (internal reference) were calculated by the 2^−△△Ct method.\nFigure 5 Time of drug-addition assay of kaempferol in CCV inhibition. (A) The schematic diagram of the experimental settings. The CCO cells were infected with CCV for 1 h followed by the indicated kaempferol treatments. Cell lysates at indicated time post-infection were subjected to RT-qPCR. (B,C) The relative expression levels of the CCV ORF 39 and ORF 59 genes with cell-treatment, virus-treatment and co-treatment at 24 h and 36 h post-infection. (D) The relative expression levels of the CCV ORF 39 and ORF 59 genes with post-treatment at 36 h post-infection. The selected gene level was normalized to 18 s (internal reference) using the 2^− ΔΔCT method. Data represent mean ± SD. The p value was determined by *p < 0.05, **p < 0.01."}}, "data": [{"smiles": "O=c1c(O)c(-c2ccc(O)cc2)oc2cc(O)cc(O)c12", "note": "[Kaempferol]", "values": [{"measurement": "down-regulation of viral attachment (CCV ORF 39/ORF 59, RT-qPCR) vs CCV control", "setting": "[1]; 2 h at 4°C", "result": "more than 50%"}, {"measurement": "production of intracellular virus (virus titer), attachment assay", "setting": "[1]", "result": "significantly reduced"}, {"measurement": "intracellular CCV mRNA level, pre-treatment of cells", "setting": "[2]; 15 μg/mL for 2 h before CCV infection, 24 h post CCV infection", "result": "effectively decreased"}, {"measurement": "intracellular CCV mRNA level, post-treatment", "setting": "[2]; 15 μg/mL kaempferol supplemented 1-24 h post-infection, read at 36 h", "result": "significantly reduced"}, {"measurement": "viral ORF 39 and ORF 59 mRNA levels, co-treatment", "setting": "[2]; 15 μg/mL kaempferol with CCV at 28°C for 1 h", "result": "failed to decrease"}, {"measurement": "decrease of viral mRNA level, kaempferol supplemented at 24 h post-infection", "setting": "[2]; 15 μg/mL, post-treatment, read at 36 h post-infection", "result": "approximately 40%"}, {"measurement": "intracellular CCV mRNA level, virus-treatment", "setting": "[2]; CCV pre-incubated with kaempferol 2 h before addition to cells", "result": "significantly reduced"}]}]}
